Assay results reported in patent US20120201749A1, “NP-1 Antagonists and Their Therapeutic Use” (priority 2009, published 2012).
Values joined by “and” are separate entries in the source; they are usually repeats but may differ in a detail not shown here. Equal entries are not always repeated.

Experiments:
[1] = target: NP-1 (Homo sapiens, UniProt O14786); experiment: Biotinylated-VEGF-A165 (bt-VEGF-A165) binding to NP-1; settings: for inhibition at 3 µM: 3 μM compound, read-out: Screen (% inhibition at 3 μM); for inhibition at 30 µM: read-out: Screen (% inhibition at 30 μM)
Summary of the method: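 Both formats: compound with bt-VEGF-A165 for 2 h at room temperature, detection via streptavidin-HRP at A450 (ref A595). Cell-based: Ad.NP-1-transfected DU145 cells, 2 nM tracer, nonspecific from 100-fold unlabelled VEGF-A165. Cell-free: NP-1-coated wells (3 μg/ml), 0.25 nM tracer, nonspecific from uncoated wells.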

[2] = tested on: human non-small-cell lung carcinoma A549 cells; experiment: Lung cancer in vivo study, A549 xenografts in nude mice
Protocol: For the efficacy study, human non-small-cell lung carcinoma A549 cells were cultured in growth medium RPMI 1640. The cells at 90% confluence were detached, counted and suspended in PBS to make the final concentration of cells 5×10^7/ml for inoculation.
The compound administration began two weeks after A549 cells were inoculated in female Balb/c nude mice. Compound 58 was dosed intraperitoneally at 80 mg/kg daily for a period of 2 weeks. Tumour volume was monitored by measuring the length and the width of the tumour using an electronic digital caliper (Fisher Scientific) daily for a period of 2 weeks. Tumour volumes were calculated using a formula (length×width^2/2). At the end of the experiment, tumours were dissected and weighed.

Chain of NP-1 (O14786 22-923): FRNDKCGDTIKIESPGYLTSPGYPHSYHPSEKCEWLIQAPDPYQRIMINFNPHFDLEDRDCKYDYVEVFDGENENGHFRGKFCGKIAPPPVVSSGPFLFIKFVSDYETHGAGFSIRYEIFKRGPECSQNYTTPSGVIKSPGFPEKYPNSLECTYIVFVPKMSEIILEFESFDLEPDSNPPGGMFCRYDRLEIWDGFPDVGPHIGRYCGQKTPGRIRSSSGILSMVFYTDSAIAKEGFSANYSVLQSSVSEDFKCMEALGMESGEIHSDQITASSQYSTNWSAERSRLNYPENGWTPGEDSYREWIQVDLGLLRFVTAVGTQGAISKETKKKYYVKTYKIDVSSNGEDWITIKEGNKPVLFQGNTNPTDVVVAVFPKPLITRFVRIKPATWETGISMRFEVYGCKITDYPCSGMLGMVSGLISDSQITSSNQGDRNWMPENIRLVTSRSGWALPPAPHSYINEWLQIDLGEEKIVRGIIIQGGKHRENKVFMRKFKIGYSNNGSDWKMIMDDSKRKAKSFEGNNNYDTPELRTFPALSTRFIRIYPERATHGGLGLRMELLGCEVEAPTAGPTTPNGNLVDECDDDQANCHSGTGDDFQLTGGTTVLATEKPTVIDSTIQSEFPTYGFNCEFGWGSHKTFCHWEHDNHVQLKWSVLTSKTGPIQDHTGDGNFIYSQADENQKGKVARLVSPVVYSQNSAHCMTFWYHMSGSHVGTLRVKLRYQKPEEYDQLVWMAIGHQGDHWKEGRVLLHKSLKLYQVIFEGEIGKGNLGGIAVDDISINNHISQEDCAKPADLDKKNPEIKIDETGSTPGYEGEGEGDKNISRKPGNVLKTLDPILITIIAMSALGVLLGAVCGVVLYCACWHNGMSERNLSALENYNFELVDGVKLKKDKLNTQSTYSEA

| Structure (SMILES) | IC50 [1] | inhibition at 3 µM [1] | inhibition at 30 µM ([1]; 30 μM compound) | also measured |
| --- | --- | --- | --- | --- |
| N=C(N)NCCC[C@H](NC(=O)c1sccc1NS(=O)(=O)c1cccc(NCc2csc(N3CCNCC3)n2)c1)C(=O)O [Compound 58, (S)-5-guanidino-2-[(3-{3-[(2-piperazin-1-yl-thiazol-4-ylmethyl)-amino]-benzenesulfonylamino}-thiophene-2-carbonyl]-amino]-pentanoic acid] | 159 nM | 72% | 96% | reduction of the rate of tumour growth ([2]; 80 mg/kg intraperitoneally daily for 2 weeks, A549 tumours, p=0.017 by linear regression test): 52% and 50%; tumour weight reduced by ([2]; 80 mg/kg intraperitoneally daily for 2 weeks, tumours weighed at end of experiment, p=0.04 by Mann Whitney test): 27%; effect on rate of tumour growth (in words) ([2]; preclinical model of lung cancer): significantly reduced the rate of tumour growth; evidence of toxicity ([2]; single daily dose for two weeks, murine model of lung cancer): No evidence of toxicity |
| N=C(N)NCCC[C@H](NC(=O)c1sccc1NS(=O)(=O)c1cc(-c2ccccc2CN2CCC(N3CCOCC3)CC2)cc2c1OCC2)C(=O)O [Compound 25, (S)-5-Guanidino-2-[(3-{5-[2-(4-morpholin-4-yl-piperidin-1-ylmethyl)-phenyl]-2,3-dihydro-benzofuran-7-sulfonylamino}-thiophene-2-carbonyl)-amino]-pentanoic acid] | 635 nM | 83% | 100% |  |
| N=C(N)NCCC[C@H](NC(=O)c1sccc1NS(=O)(=O)c1cccc(NCc2csc(N3CCN(Cc4ccccn4)CC3)n2)c1)C(=O)O [Compound 65, (S)-5-guanidino-2-{[3-(3-{[2-(4-pyridin-2-ylmethyl-piperazin-1-yl)-thiazol-4-ylmethyl]-amino}-benzenesulfonylamino)-thiophene-2-carbonyl]-amino}-pentanoic acid] |  | 40% | 90% |  |
| Cc1[nH]ncc1CCCNCc1cccc(-c2cc3c(c(S(=O)(=O)Nc4ccsc4C(=O)N[C@@H](CCCNC(=N)N)C(=O)O)c2)OCC3)c1 [Compound 41, (S)-5-Guanidino-2-({3-[5-(3-{[3-(5-methyl-1H-pyrazol-4-yl)-propylamino]-methyl}-phenyl)-2,3-dihydro-benzofuran-7-sulfonylamino]-thiophene-2-carbonyl}-amino)-pentanoic acid] |  | 52% |  |  |
| N=C(N)NCCC[C@H](NC(=O)c1sccc1NS(=O)(=O)c1cccc(NCc2csc(N3CCN(c4ccncc4)CC3)n2)c1)C(=O)O [Compound 57, (S)-5-guanidino-2-{[3-(3-{[2-(4-pyridin-4-yl-piperazin-1-yl)-thiazol-4-ylmethyl]-amino}-benzenesulfonylamino)-thiophene-2-carbonyl]-amino}-pentanoic acid] | 40 nM | 98% | 99% |  |
| N=C(N)NCCC[C@H](NC(=O)c1sccc1NS(=O)(=O)c1cc(-c2ccccc2CN2CCN(Cc3ccncc3)CC2)cc2c1OCC2)C(=O)O [Compound 8, (S)-5-Guanidino-2-[(3-{5-[2-(4-pyridin-4-ylmethyl-piperazin-1-ylmethyl)-phenyl]-2,3-dihydro-benzofuran-7-sulfonylamino}-thiophene-2-carbonyl)-amino]-pentanoic acid] | 1800 nM |  | 90% |  |
| N=C(N)NCCC[C@H](NC(=O)c1sccc1NS(=O)(=O)c1cc(-c2ccccc2CN2CCN(c3cccnc3)CC2)cc2c1OCC2)C(=O)O [Compound 10, (S)-5-Guanidino-2-[(3-{5-[2-(4-pyridin-3-yl-piperazin-1-ylmethyl)-phenyl]-2,3-dihydro-benzofuran-7-sulfonylamino}-thiophene-2-carbonyl)-amino]-pentanoic acid] | 2000 nM |  | 97% |  |
| Cc1[nH]ncc1CCCNCc1ccccc1-c1cc2c(c(S(=O)(=O)Nc3ccsc3C(=O)N[C@@H](CCCNC(=N)N)C(=O)O)c1)OCC2 [Compound 46, (S)-5-Guanidino-2-({3-[5-(2-{[3-(5-methyl-1H-pyrazol-4-yl)-propylamino]-methyl}-phenyl)-2,3-dihydro-benzofuran-7-sulfonylamino]-thiophene-2-carbonyl}-amino)-pentanoic acid] |  | 65% |  |  |
| N=C(N)NCCC[C@H](NC(=O)c1sccc1NS(=O)(=O)c1cc(-c2ccccc2CN2CCNCC2)cc2c1OCC2)C(=O)O [Compound 20, (S)-5-Guanidino-2-({3-[5-(2-piperazin-1-ylmethyl-phenyl)-2,3-dihydro-benzofuran-7-sulfonylamino]-thiophene-2-carbonyl}-amino)-pentanoic acid] | 2000 nM | 82% | 100% |  |
| N=C(N)NCCC[C@H](NC(=O)c1sccc1NS(=O)(=O)c1cc(-c2cccc(CNCc3cc[nH]n3)c2)cc2c1OCC2)C(=O)O [Compound 52, (S)-5-Guanidino-2-({3-[5-(3-{[(1H-pyrazol-3-ylmethyl)-amino]-methyl}-phenyl)-2,3-dihydro-benzofuran-7-sulfonylamino]-thiophene-2-carbonyl}-amino)-pentanoic acid] |  | 77% |  |  |
| N=C(N)NCCC[C@H](NC(=O)c1sccc1NS(=O)(=O)c1cc(-c2cccc(CNCCc3cn[nH]c3)c2)cc2c1OCC2)C(=O)O [Compound 42, (S)-5-Guanidino-2-({3-[5-(3-{[2-(1H-pyrazol-4-yl)-ethylamino]-methyl}-phenyl)-2,3-dihydro-benzofuran-7-sulfonylamino]-thiophene-2-carbonyl}-amino)-pentanoic acid] |  | 78% |  |  |
| N=C(N)NCCC[C@H](NC(=O)c1sccc1NS(=O)(=O)c1cc(-c2cccc(CN3CCC(N)CC3)c2)cc2c1OCC2)C(=O)O [Compound 34, (S)-2-[(3-{5-[3-(4-Amino-piperidin-1-ylmethyl)-phenyl]-2,3-dihydro-benzofuran-7-sulfonylamino}-thiophene-2-carbonyl)-amino]-5-guanidino-pentanoic acid] |  | 50% | 94% |  |
| Cc1cc(CNCc2ccccc2-c2cc3c(c(S(=O)(=O)Nc4ccsc4C(=O)N[C@@H](CCCNC(=N)N)C(=O)O)c2)OCC3)no1 [Compound 26, (S)-5-Guanidino-2-({3-[5-(2-{[(5-methyl-isoxazol-3-ylmethyl)-amino]-methyl}-phenyl)-2,3-dihydro-benzofuran-7-sulfonylamino]-thiophene-2-carbonyl}-amino)-pentanoic acid] |  | 55% | 100% |  |
| N=C(N)NCCC[C@H](NC(=O)c1sccc1NS(=O)(=O)c1cccc(NCc2csc(N3CCN(c4nccs4)CC3)n2)c1)C(=O)O [Compound 76, (S)-5-guanidino-2-{[3-(3-{[2-(4-thiazol-2-yl-piperazin-1-yl)-thiazol-4-ylmethyl]-amino}-benzenesulfonylamino)-thiophene-2-carbonyl]-amino}-pentanoic acid] |  | 68% |  |  |
| COC(=O)CC1CCN(Cc2ccccc2-c2cc3c(c(S(=O)(=O)Nc4ccsc4C(=O)N[C@@H](CCCNC(=N)N)C(=O)O)c2)OCC3)CC1 [Compound 6, (S)-5-Guanidino-2-[(3-{5-[2-(4-methoxycarbonylmethyl-piperidin-1-ylmethyl)-phenyl]-2,3-dihydro-benzofuran-7-sulfonylamino}-thiophene-2-carbonyl)-amino]-pentanoic acid] | 3 nM | 95% |  |  |
| N=C(N)NCCC[C@H](NC(=O)c1sccc1NS(=O)(=O)c1cc(-c2cccc(CNCc3ccncc3)c2)cc2c1OCC2)C(=O)O [Compound 32, (S)-5-Guanidino-2-({3-[5-(3-{[(pyridin-4-ylmethyl)-amino]-methyl}-phenyl)-2,3-dihydro-benzofuran-7-sulfonylamino]-thiophene-2-carbonyl}-amino)-pentanoic acid] |  | 75% |  |  |
| N=C(N)NCCC[C@H](NC(=O)c1sccc1NS(=O)(=O)c1cc(-c2ccccc2CN2CCN(Cc3ccncc3)CC2)cc2c1OCC2)C(=O)O [Compound 17, (S)-5-Guanidino-2-[(3-{5-[2-(4-pyridin-4-ylmethyl-piperazin-1-ylmethyl)-phenyl]-2,3-dihydro-benzofuran-7-sulfonylamino}-thiophene-2-carbonyl)-amino]-pentanoic acid] |  | 56% |  | Screen (% inhibition at 30 μM) ([1]; 30 μM compound, 30 µM): 94% |
